Measurements taken from patent EP0745595A1, “3-(3-Aryloxyphenyl)-1-(substituted methyl)-s-triazine-2,4,6-oxo or thiotrione herbicidal agents” (American Cyanamid Company, priority 1995, dated 1996).

How the values were obtained:
Assay type in all cases: in vivo
GALIUM APARINE = assay: Preemergence herbicidal evaluation, GALAP (Galium); settings: rated four to five weeks after treatment
Description: (§1) Results of herbicide evaluation are expressed on a rating scale (0-9). The scale is based upon a visual observation of plant stand, vigor, malformation, size, chlorosis and overall plant appearance as compared with a control.
(§2) The preemergence herbicidal activity of the test compounds of the present invention is exemplified by the following tests in which the seeds of a variety of monocotyledonous and dicotyledonous plants are separately mixed with potting soil and planted on top of approximately one inch of soil in separate pint cups. […] The treated cups are then placed on greenhouse benches, watered and cared for in accordance with conventional greenhouse procedures. From four to five weeks after treatment, the tests are terminated and each cup is examined and rated according to the rating system provided in Example 40.
(§3) The compounds evaluated are reported by compound number given in Example 40.

[1] = system: TRITICUM AESTIVUM, CV. APOLLO; assay: Preemergence herbicidal evaluation, TRZAWO (Wheat, Winter, CV. APOLLO); settings: rated four to five weeks after treatment
Description: as §1, §2, §3

CASSIA OBTUSIFOLIA, L. = assay: Preemergence herbicidal evaluation, CASOB (Sicklepod); settings: rated four to five weeks after treatment
How it was run: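 Seeds of various monocot and dicot plants, including sicklepod, were each mixed with potting soil and sown on roughly one inch of soil in separate pint cups for preemergence testing. Treated cups were kept on greenhouse benches, watered and maintained conventionally. Four to five weeks after treatment, each cup was visually rated on a 0-9 scale against a control.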

IPOMOEA SPP. = assay: Preemergence herbicidal evaluation, IPOSS (Morningglory spp.); settings: rated four to five weeks after treatment
Description: as §1, §2, §3

[2] = system: CYPERUS SEROTINUS, ROTTB.; assay: Preemergence weed control under flooded paddy conditions, CYPSE (Flatsedge); settings: preemergence, 3-4 weeks after treatment
How it was run: (§4)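 Seeds or propagules sown in top 0.5 cm of silt loam in undrained containers, flooded 1.5 to 3 cm throughout. Compounds in aqueous/acetone 50/50 v/v pipetted into flood water at about 0.5, 0.25, 0.125 and 0.063 kg/ha. Visual 0-9 rating versus control after three to four weeks in greenhouse.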

[3] = system: ORYZA SATIVA, L. TEBONNET; assay: Rice tolerance to post-transplant applications under flooded paddy conditions, ORYSAT (Rice, Tebonnet); settings: post-transplant rice, 3-4 weeks after treatment
How it was run: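 Two ten-day-old Tebonnet rice seedlings were transplanted into silt loam and kept flooded 1.5 to 3 cm deep. Three days after transplanting, the flood surface received the compound in aqueous/acetone 50/50 v/v at about 0.5, 0.25, 0.125 or 0.063 kg/ha. Injury was rated visually on a 0-9 scale versus control after 3-4 weeks.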

[4] = system: AMBROSIA ARTEMISIIFOLIA, L.; assay: Preemergence herbicidal evaluation, AMBEL (Ragweed, Common); settings: rated four to five weeks after treatment
Description: as §1, §2, §3

SAGITTARIA PYGMAEA, L. = assay: Preemergence weed control under flooded paddy conditions, SAGPY (Arrowhead (Pygmaea)); settings: preemergence, 3-4 weeks after treatment
How it was run: as §4

Cn1c(=O)n(CC(=O)OC(C)(C)C)c(=O)n(-c2cc(Oc3ccc(C(F)(F)F)cc3Cl)ccc2Cl)c1=O [Compound 40, Tert-butyl 3-{[2-chloro-5-(2-chloro-α,α,α-trifluoro-p-tolyl)oxy]phenyl}tetrahydro-5-methyl-2,4,6-trioxo-s-triazine-1(2H)-acetate]
1.5: Herbicidal effect rating, ORYSAT ([3]; 0.250 kg/ha) | Herbicidal effect rating, ORYSAT ([3]; 0.500 kg/ha)
0.5: IPOSS herbicidal rating (IPOMOEA SPP.; Rate 0.125 kg/ha) | IPOSS herbicidal rating (IPOMOEA SPP.; Rate 0.250 kg/ha) | Herbicidal effect rating, ORYSAT ([3]; 0.063 kg/ha) | Herbicidal effect rating, ORYSAT ([3]; 0.125 kg/ha)
0.0: TRZAWO herbicidal rating ([1]; Rate 0.125 kg/ha) | TRZAWO herbicidal rating ([1]; Rate 0.250 kg/ha) | Herbicidal effect rating, CYPSE ([2]; 0.063 kg/ha) | Herbicidal effect rating, CYPSE ([2]; 0.125 kg/ha) | Herbicidal effect rating, CYPSE ([2]; 0.250 kg/ha) | Herbicidal effect rating, CYPSE ([2]; 0.500 kg/ha) | AMBEL herbicidal rating ([4]; Rate 0.125 kg/ha) | AMBEL herbicidal rating ([4]; Rate 0.250 kg/ha) | Herbicidal effect rating, SAGPY (SAGITTARIA PYGMAEA, L.; 0.063 kg/ha) | Herbicidal effect rating, SAGPY (SAGITTARIA PYGMAEA, L.; 0.125 kg/ha) | Herbicidal effect rating, SAGPY (SAGITTARIA PYGMAEA, L.; 0.250 kg/ha) | Herbicidal effect rating, SAGPY (SAGITTARIA PYGMAEA, L.; 0.500 kg/ha)
4.5: GALAP herbicidal rating (GALIUM APARINE; Rate 0.125 kg/ha) | GALAP herbicidal rating (GALIUM APARINE; Rate 0.250 kg/ha)
1.0: CASOB herbicidal rating (CASSIA OBTUSIFOLIA, L.; Rate 0.125 kg/ha) | CASOB herbicidal rating (CASSIA OBTUSIFOLIA, L.; Rate 0.250 kg/ha)
